Measurements as given in patent publication US20070111990A1, “3-Aza-1-oxa-dibenzo[e,h]azulenes for the treatment of central nervous system diseases and disorders” (GLAXOSMITHKLINE ISTRAZIVACKI CENTAR ZAGREB D.O.O., priority 2003, published 2007).

Columns and labels:
5-HT2C receptor = molecular target: T1, 5-HT2C receptor (Homo sapiens, UniProt P28335); assay: radioligand binding assay for 5-HT2C receptor ([3H]-mesulergine); conditions: competitive binding; for IC50: choroid plexus or recombinant 5-HT2C in CHO-K1, read-out: binding affinity to 5-HT2C serotonin receptor expressed as IC50 value; for Ki: choroid plexus or recombinant 5-HT2C in CHO-K1, read-out: binding affinity to 5-HT2C serotonin receptor, Ki value
T1 construct: expressed in transfected cells; host or cells: CHO-K1 cells (alternatively choroid plexus tissue)
T1 sequence (P28335 33-458): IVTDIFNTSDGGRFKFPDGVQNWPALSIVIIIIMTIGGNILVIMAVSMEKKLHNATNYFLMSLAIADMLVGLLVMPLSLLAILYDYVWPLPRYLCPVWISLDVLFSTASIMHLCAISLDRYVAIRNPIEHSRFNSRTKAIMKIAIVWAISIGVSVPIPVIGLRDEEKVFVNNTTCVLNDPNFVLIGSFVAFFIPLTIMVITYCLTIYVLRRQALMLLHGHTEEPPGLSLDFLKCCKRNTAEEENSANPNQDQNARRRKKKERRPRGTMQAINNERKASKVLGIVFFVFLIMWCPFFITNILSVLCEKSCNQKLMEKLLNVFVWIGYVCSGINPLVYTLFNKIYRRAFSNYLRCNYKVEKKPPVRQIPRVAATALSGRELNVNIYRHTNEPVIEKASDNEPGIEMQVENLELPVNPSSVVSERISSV
Procedure: (§1) The effect of the compounds of the present invention on the neurochemical steady state was determined by in vitro investigations such as a radionuclide-marked radioligand binding assay for 5-HT2A (Bonhaus D. W. Br. J. Pharmacol. 1995, 115:622; Saucier C. J. Neurochem. 1997, 68:1998) and 5-HT2C receptors (Wolf W. A. J. Neurochem. 1997, 69:1449), in vitro binding assay for σ1 receptor (Thomson W. and Donn R. Arthritis Res. 2002, 4: 302-306) and by in vivo investigations in a tail suspension test (Vogel H. G. and Vogel W. H. Drug Discovery and Evaluation Pharmacological Assays, Springer 1997, 304), in amphethamine-induced hyperlocomotion in mice (Millan M. J. et al, 1998 J Pharmacol. Exp. Ther. 287: 167-186), in a forced swim test in mice (Porsolt R. D. et al. Arch. Int. Pharmacodyn. 1977, 229:327-336), in meta-chlorophenyl piperazine (m-CPP) test on rats (Drug Dev. Res. 1989, 18:119-144), and in apomorphine, tryptamine, norepinephrine (ATN) test in rats (Arch. Int. Pharmacodyn. 1977, 227:238-253).
(§2) In Vitro Method for Determining Affinity for Binding to 5-HT2A and 5-HT2C Receptors
(§3) A small concentration of a radioligand having a great affinity for binding to a receptor was incubated with a tissue sample enriched with a certain receptor (1-5 mg of tissue) in a buffered medium (0.2-5 mL). Recombinant human HT2A and HT2C receptors were expressed in CHO-K1 or COS-7 cells and were also used for competitive binding. During incubation the radioligand bound to the receptor. When a binding balance was achieved, the receptors to which the radioligand was bound were separated from those to which said ligand was not bound, and the radioactivity of the receptor/radioligand complex was measured. The interaction of the tested compounds with receptors was tested in competitive binding experiments. Various concentrations of tested compounds were added to the incubation mixture containing a prepared tissue enriched with corresponding receptors and the radioligand. The radioligand binding was inhibited by the test compounds proportionally to the affinity of a certain compound for the receptor and to the concentration of the compound.
The radioligand used for the determination of binding to 5-HT2C receptor was [^3H]-mesulergine and the tissue used was choroid plexus or recombinant 5-HT2C receptor expressed in CHO—K1 cells.

5-HT2A receptor = molecular target: T2, 5-HT2A receptor (Homo sapiens, UniProt P28223); assay: radioligand binding assay for 5-HT2A receptor ([3H]-ketanserin); conditions: competitive binding; for IC50: human cortex or recombinant 5-HT2A in CHO-K1, read-out: binding affinity to 5-HT2A serotonin receptor expressed as IC50 value; for Ki: human cortex or recombinant 5-HT2A in CHO-K1, read-out: binding affinity to 5-HT2A serotonin receptor, Ki value
T2 construct: expressed in transfected cells; host or cells: CHO-K1 (alternatively human cortex tissue)
Procedure: as §1, §2, §3
The radioligand used for the determination of binding to ^5-HT2A receptor was [^3H]-ketanserin and the tissue used was human cortex or recombinant 5-HT2A receptor expressed in CHO—K1.

T2 sequence (P28223 whole entry): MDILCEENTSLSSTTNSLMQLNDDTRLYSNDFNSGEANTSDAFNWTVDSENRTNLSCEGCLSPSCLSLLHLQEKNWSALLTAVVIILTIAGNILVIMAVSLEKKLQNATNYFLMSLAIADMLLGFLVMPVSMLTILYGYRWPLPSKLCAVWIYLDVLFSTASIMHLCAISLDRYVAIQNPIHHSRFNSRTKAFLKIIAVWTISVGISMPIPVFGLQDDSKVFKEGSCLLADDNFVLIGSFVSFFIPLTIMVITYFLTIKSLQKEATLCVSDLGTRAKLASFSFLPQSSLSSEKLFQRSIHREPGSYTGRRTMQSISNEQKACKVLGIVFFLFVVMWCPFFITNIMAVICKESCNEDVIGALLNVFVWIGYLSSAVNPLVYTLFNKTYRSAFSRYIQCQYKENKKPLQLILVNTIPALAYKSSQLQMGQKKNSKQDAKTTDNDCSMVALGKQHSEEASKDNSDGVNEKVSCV

IC50 (5-HT2C receptor) [nM] | Ki (5-HT2C receptor) [nM] | IC50 (5-HT2A receptor) [nM] | Ki (5-HT2A receptor) [nM] | Structure (SMILES)
< 200 | < 100 | < 200 | < 100 | CN(C)CCOCc1nc2c(o1)-c1ccccc1Sc1ccc(Cl)cc1-2 [[2-(5-chloro-1-oxa-8-thia-3-aza-dibenzo[e,h]azulen-2-ylmethoxy)-ethyl]-dimethyl-amine]
< 200 | < 100 | < 200 | < 100 | Cc1nc2c(o1)-c1ccccc1Oc1ccc(Cl)cc1-2 [5-chloro-2-methyl-1,8-dioxa-3-aza-dibenzo[e,h]azulene]

More lines, now with the values behind:

Structure (SMILES) | IC50 (5-HT2C receptor) [nM] | Ki (5-HT2C receptor) [nM] | IC50 (5-HT2A receptor) [nM] | Ki (5-HT2A receptor) [nM]
c1ccc2c(c1)Sc1ccccc1-c1ocnc1-2 [1-oxa-8-thia-3-aza-dibenzo[e,h]azulene] | < 200 | < 100 | < 200 | < 100
CN(C)CCOCc1nc2c(o1)-c1ccccc1Sc1ccccc1-2 [dimethyl-[2-(1-oxa-8-thia-3-aza-dibenzo[e,h]azulen-2-ylmethoxy)-ethyl]-amine] | < 200 | < 100 | < 200 | < 100
CN(C)CCOCc1nc2c(o1)-c1cc(Cl)ccc1Sc1ccccc1-2 [[2-(11-chloro-1-oxa-8-thia-3-aza-dibenzo[e,h]azulen-2-ylmethoxy)-ethyl]-dimethyl-amine] | < 200 | < 100 | < 200 | < 100
